In patent US9045505B2, “Nitric oxide donors” (University of Otago, priority 2006, dated 2015):

Experiments:
C2C12 cells = experiment: S-nitrosation of cellular protein thiols in C2C12 cells; type: cell-based, mouse; details: 5 μM
Protocol: FIG. 11 is a series of graphs showing S-nitrosation of mitochondrial thiols by MitoSNAP. (a) Time course of S-nitrosation of mitochondrial proteins by MitoSNAP. Liver mitochondria (1 mg protein) were incubated in 1 ml KCl buffer supplemented with rotenone and succinate in the presence of 5 μM MitoSNAP. At various times mitochondria were treated with 10 mM N-ethylmaleimide (NEM), isolated by centrifugation and the S-nitrosothiol content assessed. Data are of a typical experiment showing means±range of duplicate samples for each time point, each measured in duplicate. The experiment was repeated twice. (b) S-nitrosation of mitochondrial proteins by different concentrations of MitoSNAP and SNAP. Aliquots of liver mitochondria were incubated with the indicated concentrations of MitoSNAP or SNAP for […] in the presence or absence of 500 nM FCCP and then assessed for S-nitrosothiol content as in (a). For the +NEM sample, 10 mM NEM was added to the mitochondria and 1 min later 5 μM MitoSNAP was added and incubated for a further 2.5 min. Data are of a typical experiment showing means±range of duplicate samples for each time point, each measured in duplicate. The experiment was repeated twice. (c) S-nitrosation of cellular protein thiols by MitoSNAP. […] After further incubation for 5 min at 37° C. in the dark, the medium was removed and the content of S-nitrosated proteins was measured. […] After 5 min at 37° C. in the dark, the medium was removed and the cells were processed to isolate a mitochondria-enriched fraction and S-nitrosated protein was then determined Data are mean±sem of triplicate determinations (+MitoSNO1), or mean±range of duplicate determinations (+FCCP). […] S-nitrosated thiols were then selectively tagged with Cy3 maleimide and protein (10 μg) was then separated on a 12.5% SDS PAGE gel which was stained with coomassie blue and scanned for Cy3 fluorescence. The Cy3 fluorescence (SNO) and coomassie staining (coomassie) of each gel is shown. […]

HeLa cells = experiment: Cell hypoxia experiment, extracellular pO2 by fluorescence quenching oximetry; type: cell-based; details: 1% O2, 30 min incubation, compared to untreated controls
Protocol: FIG. 10 is a series of traces and graphs showing the effect of MitoSNAP on respiration in cells. (a-d) Jurkat cells (55×10^6 cells) were incubated in PBS supplemented with 25 mM Hepes pH 7.2 (NaOH), 1 mM sodium pyruvate, 10 μM neocuproine and 100 μM DTPA in the stirred 2.5 ml chamber of an oxygen electrode at 37° C. with 5 μM MitoSNAP (a), MitoNAP (b), SNAP (c) or MitoSNAP and FCCP (500 nM) (d). Where indicated 5 μM OxyHb was added. Traces show typical experiments that were repeated at least three times. Sections of the 02 electrode trace where OxyHb was added for (a) and (b) have been expanded 4-fold in the vertical dimension to facilitate inspection. […] Cellular pO2 values, measured by fluorescence quenching oximetry and expressed as mean±sd, are shown. […]
HeLa cells were seeded and grown to 100% confluence with 15 ml medium/dish on 165 cm^2 dishes. […] Extracellular pO2 measurements were taken by fluorescence quenching oximetry (Oxylite-2000; Oxford Optronix). […]
To evaluate the selective uptake of MitoSNAP by mitochondria within cells, the effect of MitoSNAP on respiration by Jurkat cells, a T lymphocyte cell line that grows in suspension, was measured using an O2 electrode (FIG. 10). […] Then the effects of a further 30 min incubation with MitoSNAP, MitoNAP or the mitochondrial inhibitor myxathiazol on the steady-state extracellular pO2 was assessed by fluorescence quenching oximetry (FIG. 10e).

complex I = experiment: S-nitrosation of bovine heart mitochondrial membranes and complex I; type: biochemical

CC(=O)NC(C(=O)NCCCCC[P+](c1ccccc1)(c1ccccc1)c1ccccc1)C(C)(C)SN=O.CS(=O)(=O)[O-] (stereo not shown) [MitoSNAP, [5-(2-acetylamino-3-methyl-3-nitrosothio-butyrylamino)-penty1]-triphenylphosphonium methanesulfonate]
time of maximum S-nitrosation of cell proteins (C2C12 cells): 5 to 10 min | S-nitrosation of proteins of a mitochondria-enriched cell fraction (C2C12 cells; 5 min): extensively S-nitrosated | extent of cell protein S-nitrosation (C2C12 cells; 5 min): considerably greater than that by SNAP | effect on steady-state extracellular pO2 during hypoxia (HeLa cells): increased extracellular O2 | S-nitrosation of complex I (BN-PAGE, Cy3) (complex I; 75 μM, 5 min): complex I was S-nitrosated | formation of protein SNOs (complex I; 75 μM, 5 min, mean±SD, n=4): 4.8±0.9 nmol protein SNOB/mg protein | decrease of SNO content by GSH treatment (complex I; 1 mM GSH): ~53%
